Measurements reported in US20100010078A1, “METHODS OF TREATING ANDROGEN DEPENDENT PROSTATE CANCER BY ADMINISTERING AN ACTIVE PHARMACEUTICAL INGREDIENT BEING FISETIN, 3,3',4',7-TETRAHYDROXYFLAVONE OR A DERIVATIVE THEREOF, IN AN ORAL, TRANSDERMAL OR TOPICAL DOSAGE FORM” (priority 2008, published 2010).
Like-named read-outs stand apart in the source and are kept apart here.

Key:
CWR22Ru1 cells = assay: MTT cell viability assay, CWR22Ru1 cells; type: cell-based; settings: Homo sapiens, read-out: decrease in cell viability; for cytotoxicity at 10 µM: CWR22Ru1, fisetin 10 μM; for cytotoxicity at 20 µM: CWR22Ru1, fisetin 20 μM; for cytotoxicity at 40 µM: CWR22Ru1, fisetin 40 μM; for cytotoxicity at 60 µM: CWR22Ru1, fisetin 60 μM
Description: obtained from ATCC (Manassas, Va.). LNCaP cells were cultured in Dulbecco's Modified Eagle's medium supplemented with 5% heat-inactivated fetal bovine serum and 1% penicillin/streptomycin (P-S). CWR22Ru1 and PC-3 cells were grown in RPMI 1640 (Invitrogen) supplemented with 10% fetal bovine serum and 1% P-S. Human prostate epithelial cells (PrEC) were obtained from Cambrex Bioscience (Walkersville, Md.) and grown in prostate epithelial basal cell medium (Cambrex Bioscience) according to the manufacturer's instructions. The cells were maintained under standard cell culture conditions at 37° C. and 5% CO2 in a humid environment. Fisetin dissolved in dimethyl sulfoxide (final concentration 0.1% v/v) was used for the treatment of cells. The cells (60-70% confluent) were treated with fisetin (10-60 μM) for 24 and 48 h in complete growth medium.
Cell viability. The effect of fisetin on the viability of cells was determined by 3-[4,5-dimethylthiazol-2-yl]-2,5-diphenyl tetrazoliumbromide assay. LNCaP, CWR22Ru1, PC-3 and PrEC cells were plated at 1×10^4 cells per well in 200 μl of complete culture medium containing 10-60 μM concentrations of fisetin in 96-well microtiter plates for 24 and 48 h. After incubation for specified times at 37° C. in a humidified incubator, 3-[4,5-dimethylthiazol-2-yl]-2,5-diphenyl tetrazoliumbromide (5 mg/ml in PBS) was added to each well and incubated for 2 h, after which the plate was centrifuged at 1,800×g for 5 min at 4° C. The absorbance was recorded on a microplate reader at the wavelength of 540 nm. The effect of fisetin on growth inhibition was assessed as percent cell viability where DMSO-treated cells were taken as 100% viable. DMSO at the concentrations used was without any effect on cell viability.

caspase-3 and -7 = assay: Immunofluorescence staining for active caspase-3 and -7; type: cell-based, human; settings: LNCaP, fisetin only 40 μM, 48 h
Description: Immunofluorescence staining for active caspase-3 and -7. LNCaP cells were incubated with 40 μM concentration of the general caspase inhibitor Z-VAD-FMK for 2 h, followed by the addition of fisetin (40 μM; 48 h) and then harvested. ICT's Magic Red™ substrate-based MR-Caspase assay kit was used for the immunofluorescence staining for caspase-3 and -7. This kit utilizes the fluorophore, cresyl violet. As the 4 amino acid sequence, aspartylglutamylalanylaspartic acid (DEVD) is the optimal sequence for caspase -3 as well as -7, it was coupled to cresyl violet to create the caspase 3/7 substrate, MR-(DEVD)2. […] Following enzymatic hydrolysis at one or both of the aspartic acid amide linkage sites, the mono and non-substituted cresyl violet fluorophores fluoresce red and fluorescence photographs were obtained at 510-560 nm excitation and 610 nm emission.

[1] = system: PI3K (p85), Akt (Ser473 and Thr308); assay: Western blot, PI3K (p85) and phosphorylation of Akt in LNCaP cells; type: cell-based, human; settings: fisetin 10-60 μM, 48 h
Description: (§1) Protein extraction and western blotting. Following the treatment of LNCaP cells with fisetin (10-60 μM; 48 h), the media was aspirated, the cells were washed with cold PBS (pH 7.4), and ice-cold lysis buffer (50 mM Tris-HCl, 150 mM NaCl, 1 mM EGTA, 1 mM EDTA, 20 mM NaF, 100 mM Na3VO4, 0.5% NP-40, 1% Triton X-100, 1 mM PMSF (pH 7.4)) with freshly added protease inhibitor cocktail (Protease Inhibitor Cocktail Set III, Calbiochem, La Jolla, Calif.) over ice for 30 min. The cells were scraped and the lysate was collected in a microfuge tube and passed through a needle to break up the cell aggregates. […]
(§2) For western blotting, 30-50 μg protein was resolved over 8-12% polyacrylamide gels and transferred to a nitrocellulose membrane. The blot was blocked in blocking buffer (5% nonfat dry milk/1% Tween 20; in 20 mM TBS, pH 7.6) for 1 hr at room temperature, incubated with appropriate monoclonal or polyclonal primary antibody in blocking buffer for 1.5 h to overnight at 4° C., followed by incubation with anti-mouse or anti-rabbit secondary antibody horseradish peroxidase conjugate obtained from Amersham Life Science Inc. and detected by chemiluminescence and autoradiography using XAR-5 film obtained from Eastman Kodak Co. (Rochester, N.Y., USA). […]

XIAP and Smac/DIABLO = assay: Western blot, XIAP and Smac/DIABLO in LNCaP cells; type: cell-based, human; settings: fisetin 10-60 μM, 48 h
Description: as §1, §2

Question: `O=c1c(O)c(-c2ccc(O)c(O)c2)oc2cc(O)ccc12` [fisetin, 3,3′,4′,7-tetrahydroxyflavone] was tested. Which cytotoxicity at 10 µM (CWR22Ru1 cells; 24 h) did it give?
Answer: The cytotoxicity at 10 µM was 12%.

Question: What about the cytotoxicity at 10 µM (CWR22Ru1 cells; 48 h) of the same compound?
Answer: Its cytotoxicity at 10 µM is 18%.

Question: And the cytotoxicity at 20 µM (CWR22Ru1 cells; 24 h)?
Answer: Its cytotoxicity at 20 µM is 26%.

Question: What about the cytotoxicity at 20 µM (CWR22Ru1 cells; 48 h) of the same compound?
Answer: Its cytotoxicity at 20 µM is 34%.

Question: And the cytotoxicity at 40 µM (CWR22Ru1 cells; 24 h)?
Answer: Its cytotoxicity at 40 µM is 38%.

Question: What about the cytotoxicity at 40 µM (CWR22Ru1 cells; 48 h) of the same compound?
Answer: The cytotoxicity at 40 µM was 44%.

Question: And the cytotoxicity at 60 µM (CWR22Ru1 cells; 24 h)?
Answer: Its cytotoxicity at 60 µM is 52%.

Question: And the cytotoxicity at 60 µM (CWR22Ru1 cells; 48 h)?
Answer: The cytotoxicity at 60 µM was 55%.

Question: What about the “immunofluorescence staining of active caspase-3 & 7” value (caspase-3 and -7) of the same compound?
Answer: The value was “intense staining”.

Question: What about the “expression of regulatory (p85) subunit of PI3K” value [1] of the same compound?
Answer: Its value is “inhibition”.

Question: And the “phosphorylation of Akt at Ser473 and Thr308” value [1]?
Answer: The value was “inhibited”.

Question: And the “protein expression of Smac/DIABLO” value (XIAP and Smac/DIABLO)?
Answer: Its value is “induction”.

Question: What about the “protein expression of XIAP” value (XIAP and Smac/DIABLO) of the same compound?
Answer: Its value is “inhibition”.
